Test results as given in PubChem BioAssay AID1259407 (Chemical Carcinogenesis Research Information System (CCRIS), 2018).
Calls of active or inactive are those of the source. No rule for the calls is given here.

Tested on: CCRIS mutagenicity, Ames/micronucleus/aberration tests
Experiment: CCRIS mutagenicity studies

Nc1ccc(-c2ccc(N)cc2)cc1
mutagenic call (Test System: AMES SALMONELLA TYPHIMURIUM, Strain/Indicator: TA100, Metabolic Activation: RAT, BLADDER, S-9, PCB, Method: FLUCTUATION TEST): active; positive
mutagenic call (Test System: AMES SALMONELLA TYPHIMURIUM, Strain/Indicator: TA100, Metabolic Activation: S-9, Method: STANDARD PLATE): inactive; negative
mutagenic call (Test System: AMES SALMONELLA TYPHIMURIUM, Strain/Indicator: TA100, Metabolic Activation: TOBACCO CELL-FREE TXIMX, Method: PREINCUBATION): inactive; negative
mutagenic call (Test System: AMES SALMONELLA TYPHIMURIUM, Strain/Indicator: TA1538, Metabolic Activation: GUINEA PIG, LIVER, INTACT HEPATOCYTES, Method: PREINCUBATION): active; positive
mutagenic call (Test System: AMES SALMONELLA TYPHIMURIUM, Strain/Indicator: TA1538, Metabolic Activation: GUINEA PIG, LIVER, S-9, ACETYL COENZYME A, Method: PREINCUBATION): active; positive
mutagenic call (Test System: AMES SALMONELLA TYPHIMURIUM, Strain/Indicator: TA1538, Metabolic Activation: GUINEA PIG, LIVER, S-9, Method: PREINCUBATION): active; positive
mutagenic call (Test System: AMES SALMONELLA TYPHIMURIUM, Strain/Indicator: TA1538, Metabolic Activation: HAMSTER, LIVER, INTACT HEPATOCYTES, Method: PREINCUBATION): active; positive
mutagenic call (Test System: AMES SALMONELLA TYPHIMURIUM, Strain/Indicator: TA1538, Metabolic Activation: HAMSTER, LIVER, S-9, ACETYL COENZYME A, Method: PREINCUBATION): active; positive
mutagenic call (Test System: AMES SALMONELLA TYPHIMURIUM, Strain/Indicator: TA1538, Metabolic Activation: HAMSTER, LIVER, S-9, Method: PREINCUBATION): active; positive
mutagenic call (Test System: AMES SALMONELLA TYPHIMURIUM, Strain/Indicator: TA1538, Metabolic Activation: HAMSTER, LIVER, S-9, Method: STANDARD PLATE): active; positive
mutagenic call (Test System: AMES SALMONELLA TYPHIMURIUM, Strain/Indicator: TA1538, Metabolic Activation: RAT, LIVER, INTACT HEPATOCYTES, Method: PREINCUBATION): active; positive
mutagenic call (Test System: AMES SALMONELLA TYPHIMURIUM, Strain/Indicator: TA1538, Metabolic Activation: RAT, LIVER, S-9, ACETYL COENZYME A, Method: PREINCUBATION): active; positive
mutagenic call (Test System: AMES SALMONELLA TYPHIMURIUM, Strain/Indicator: TA1538, Metabolic Activation: RAT, LIVER, S-9, AROCLOR 1254, Method: STANDARD PLATE): active; positive
mutagenic call (Test System: AMES SALMONELLA TYPHIMURIUM, Strain/Indicator: TA1538, Metabolic Activation: RAT, LIVER, S-9, PHENOBARBITAL, Method: STANDARD PLATE): active; positive
mutagenic call (Test System: AMES SALMONELLA TYPHIMURIUM, Strain/Indicator: TA1538, Metabolic Activation: RAT, LIVER, S-9, Method: PREINCUBATION): active; positive
mutagenic call (Test System: AMES SALMONELLA TYPHIMURIUM, Strain/Indicator: YG1021, Metabolic Activation: TOBACCO CELL-FREE TXIMX, Method: PREINCUBATION): active; positive
mutagenic call (Test System: AMES SALMONELLA TYPHIMURIUM, Strain/Indicator: YG1021, Metabolic Activation: TOBACCO TX1 CELLS, Method: PREINCUBATION): active; positive
mutagenic call (Test System: AMES SALMONELLA TYPHIMURIUM, Strain/Indicator: YG1024, Metabolic Activation: HUMAN, HEPATOMA CELLS, BENZO[A]ANTHRACENE, Method: PREINCUBATION): active; positive
mutagenic call (Test System: AMES SALMONELLA TYPHIMURIUM, Strain/Indicator: YG1024, Metabolic Activation: HUMAN, HEPATOMA CELLS, Method: PREINCUBATION): active; positive
mutagenic call (Test System: AMES SALMONELLA TYPHIMURIUM, Strain/Indicator: YG1024, Metabolic Activation: PLANT CELLS, Method: PREINCUBATION): active; positive
mutagenic call (Test System: AMES SALMONELLA TYPHIMURIUM, Strain/Indicator: YG1024, Metabolic Activation: RAT, LIVER, S-9, AROCLOR 1254, Method: PREINCUBATION): active; positive
mutagenic call (Test System: AMES SALMONELLA TYPHIMURIUM, Strain/Indicator: YG1024, Metabolic Activation: RAT, LIVER, S-9, Method: PREINCUBATION): active; positive
mutagenic call (Test System: AMES SALMONELLA TYPHIMURIUM, Strain/Indicator: YG1024, Metabolic Activation: TOBACCO CELL-FREE EXTRACT, Method: PREINCUBATION): active; positive
mutagenic call (Test System: AMES SALMONELLA TYPHIMURIUM, Strain/Indicator: YG1024, Metabolic Activation: TOBACCO CELL-FREE TXIMX, Method: PREINCUBATION): active; positive
mutagenic call (Test System: AMES SALMONELLA TYPHIMURIUM, Strain/Indicator: YG1024, Metabolic Activation: TOBACCO TX1 CELLS, Method: PREINCUBATION): active; positive
mutagenic call (Test System: AMES SALMONELLA TYPHIMURIUM, Strain/Indicator: YG1026, Metabolic Activation: TOBACCO CELL-FREE TXIMX, Method: PREINCUBATION): inactive; negative
mutagenic call (Test System: AMES SALMONELLA TYPHIMURIUM, Strain/Indicator: YG1026, Metabolic Activation: TOBACCO TX1 CELLS, Method: PREINCUBATION): inactive; negative
mutagenic call (Test System: AMES SALMONELLA TYPHIMURIUM, Strain/Indicator: YG1029, Metabolic Activation: TOBACCO CELL-FREE TXIMX, Method: PREINCUBATION): active; positive
mutagenic call (Test System: AMES SALMONELLA TYPHIMURIUM, Strain/Indicator: YG1029, Metabolic Activation: TOBACCO TX1 CELLS, Method: PREINCUBATION): active; positive
mutagenic call (Test System: Ames Salmonella typhimurium, Strain/Indicator: TA98, Metabolic Activation: Rat, Liver, S-9, Sodium phenobarbitone, Method: Preincubation): active; positive, test conducted under both aerobic and anaerobic conditions.
mutagenic call (Test System: Ames Salmonella typhimurium, Strain/Indicator: TA102, Metabolic Activation: None, Method: Preincubation): inactive; negative
mutagenic call (Test System: Ames Salmonella typhimurium, Strain/Indicator: TA102, Metabolic Activation: Rat, Liver, S-9, Aroclor 1254 in 0.154 M KCl, Method: Preincubation): active; positive (coumestrol, ellagic acid, (-) epicatechin, (-) epichatechingallate, ga
mutagenic call (Test System: Ames Salmonella typhimurium, Strain/Indicator: TA102, Metabolic Activation: Rat, liver, S-9, Aroclor 1254, 4%, Method: Preincubation): active; positive
mutagenic call (Test System: Ames Salmonella typhimurium, Strain/Indicator: TA1538, Metabolic Activation: Rat, Liver, S-9, Sodium phenobarbitone, Method: Preincubation): active; positive, test conducted under both aerobic and anaerobic conditions.
mutagenic call (Test System: CHINESE HAMSTER OVARY, Strain/Indicator: CHO-K1-BH4 (HGPRT)/6-THIOGUANINE, Metabolic Activation: RAT, LIVER, S-9, Method: SUSPENSION/PLATE): inactive; negative
mutagenic call (Test System: CHINESE HAMSTER OVARY, Strain/Indicator: CHO-K1-BH4 (HGPRT), Metabolic Activation: RAT, LIVER, S-9, AROCLOR, Method: SUSPENSION/PLATE): active; positive
mutagenic call (Test System: CHINESE HAMSTER V-79, Strain/Indicator: V-79/6-THIOGUANINE, Metabolic Activation: MOUSE, LIVER, S-9, Method: SUSPENSION/PLATE): active; positive
mutagenic call (Test System: CHINESE HAMSTER V-79, Strain/Indicator: V-79/6-THIOGUANINE, Metabolic Activation: NONE, Method: SUSPENSION/PLATE): inactive; negative
mutagenic call (Test System: CHINESE HAMSTER V-79, Strain/Indicator: V-79/6-THIOGUANINE, Metabolic Activation: RAT, LIVER, S-9, AROCLOR 1254, Method: SUSPENSION/PLATE): inactive; negative
mutagenic call (Test System: CHINESE HAMSTER V-79, Strain/Indicator: V-79/6-THIOGUANINE, Metabolic Activation: RAT, LIVER, S-9, PHENOBARBITAL AND BETA-NAPHTHOFLAVONE, Method: SUSPENSION/PLATE): inactive; negative
mutagenic call (Test System: MOUSE LYMPHOMA, Strain/Indicator: L5178Y (HGPRT)/6-THIOGUANINE, Metabolic Activation: NONE, Method: SUSPENSION/PLATE): inactive; negative
mutagenic call (Test System: MOUSE LYMPHOMA, Strain/Indicator: L5178Y (HGPRT)/6-THIOGUANINE, Metabolic Activation: RAT, LIVER, S-9, AROCLOR 1254, Method: SUSPENSION/PLATE): inactive; negative
mutagenic call (Test System: MOUSE LYMPHOMA, Strain/Indicator: L5178Y (HPRT), Metabolic Activation: NONE, Method: SUSPENSION/PLATE): inactive; negative
mutagenic call (Test System: MOUSE LYMPHOMA, Strain/Indicator: L5178Y (TK+/TK-)/TRIFLUOROTHYMIDINE, Metabolic Activation: NONE, Method: SUSPENSION/PLATE): active; positive
mutagenic call (Test System: MOUSE LYMPHOMA, Strain/Indicator: L5178Y (TK+/TK-)/TRIFLUOROTHYMIDINE, Metabolic Activation: RAT, LIVER, S-9, AROCLOR 1254, Method: SUSPENSION/PLATE): active; positive
mutagenic call (Test System: MOUSE LYMPHOMA, Strain/Indicator: L5178Y (TK+/TK-), Metabolic Activation: NONE, Method: SUSPENSION/PLATE): active; positive
mutagenic call (Test System: MOUSE LYMPHOMA, Strain/Indicator: L5178Y (TK+/TK-), Metabolic Activation: RAT, LIVER, S-9, AROCLOR 1254, Method: SUSPENSION/PLATE): active; positive
mutagenic call (Test System: MOUSE LYMPHOMA, Strain/Indicator: L5178Y (TK+/TK-), Metabolic Activation: S-9, Method: SUSPENSION/PLATE): active; positive
mutagenic call (Test System: UDS RODENT HEPATOCYTES, Strain/Indicator: THY INCORP (NON-S-PHASE), Method: AUTORADIOGRAPHY): active; positive
